# Key:
# human GPR119 receptor = target: T1, human GPR119 receptor (Homo sapiens, UniProt Q8TDV5); experiment: cAMP assay (Flash Plate adenylyl cyclase kit) in GPR119-transfected HEK293 cells; format: cell-based; conditions: GPR119-transfected HEK293 cells vs empty vector; 60 min at room temperature; FIG. 2
# T1 construct: Full-Length Cloning of Endogenous Human GPR119; expressed in transfected cells; host or cells: HEK293 cells, transient transfection with Lipofectamine
# T1 sequence (Q8TDV5 1-335): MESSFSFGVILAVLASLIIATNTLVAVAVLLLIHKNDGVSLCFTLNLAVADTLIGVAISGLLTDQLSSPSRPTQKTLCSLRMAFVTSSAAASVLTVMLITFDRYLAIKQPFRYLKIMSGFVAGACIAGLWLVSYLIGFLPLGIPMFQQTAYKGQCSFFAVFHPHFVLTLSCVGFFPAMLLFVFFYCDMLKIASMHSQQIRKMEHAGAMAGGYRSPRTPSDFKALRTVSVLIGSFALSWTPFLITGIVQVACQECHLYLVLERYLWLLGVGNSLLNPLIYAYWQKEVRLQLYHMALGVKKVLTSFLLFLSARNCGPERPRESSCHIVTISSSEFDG
# Procedure: Briefly, HEK293 cells were transfected with either empty vector DNA (“Vector”) or human GPR119 receptor expression plasmid DNA (“GPR119”) using Lipofectamine (Invitrogen, Carlsbad, Calif.). After 24 h, transfected cells were harvested in GIBCO (Gaithersburg, Md.) cell dissociation buffer (Catalog no. 13151-014) and resuspended in assay buffer (50% 1×PBS/50% stimulation buffer). Compound 1 was incubated with 10^5 cells per well for 60 min at room temperature. After another 2-h incubation with tracer in detection buffer, plates were counted in a Wallac (Gaithersburg, Md.) MicroBeta scintillation counter. Values of cAMP per well were extrapolated from a standard cAMP curve that was included on each assay plate.
# plasma total PYY [1] = experiment: Effect of oral GPR119 agonist on plasma total PYY in wild-type mice (PYY EIA kit); format: in vivo, C57BL/6 male mice; conditions: 10 mg/kg per orally; fasted 18 h; glucose bolus 3 g/kg 30 min after treatment; blood at 0, 2, 5, 10 min; FIG. 3
# Procedure: C57BL/6 male mice (approximately 8 weeks of age; obtained from Harlan, Indianapolis, Ind.) were fasted for 18 hours, and randomly assigned into eight groups with n=6 for each group. Mice were administered per orally with vehicle (80% polyethylene glycol 400/10% Tween 80/10% ethanol) or with a GPR119 agonist (Compound 1; (2-Fluoro-4-methanesulfonyl-phenyl)-{6-[4-(3-isopropyl-[1,2,4]oxadiazol-5-yl)-piperidin-1-yl]-5-nitro-pyrimidin-4-yl}-amine) at 10 mg/kg, as indicated in FIG. 3. Thirty minutes after treatment, a glucose bolus at 3 g/kg was delivered per orally, and blood was collected at 0 minute (no glucose bolus), 2 minutes, 5 minutes, and 10 minutes after glucose bolus. Plasma total PYY (inclusive of PYY1-36 and PYY3-36) levels were determined by using a PYY EIA kit purchased from Phoenix Pharmaceuticals, Inc. (Peptide YY (PYY) (Rat, Mouse, Porcine, Canine) EIA kit, Catalog No. EK-059-03) according to instructions provided in the kit. […] From the results shown in FIG. 3, it is apparent that the GPR119 agonist (Compound 1) stimulated plasma total PYY in the mice. Compound 1 is identical to a compound disclosed in International Patent Application No. PCT/US2004/001267 (published as WO 2004/065380).
# plasma total PYY [2] = experiment: Effect of oral GPR119 agonist on plasma total PYY in GPR119-deficient (knockout) mice (paper example); format: in vivo, GPR119-deficient male mice; conditions: 20 mg/kg per orally; glucose bolus 3 g/kg; blood at 0 and 5 min
# Procedure: (§1) GPR119-deficient male mice (Chu et al, Endocrinology (2007) 148:2601-2609) and wild-type littermates are fasted for 18 hours. Mice are administered per orally with vehicle (80% polyethylene glycol 400/10% ethanol/10% Tween 80) or with a GPR119 agonist in accordance with the present invention (Compound 1; (2-Fluoro-4-methanesulfonyl-phenyl)-{6-[4-(3-isopropyl-[1,2,4]oxadiazol-5-yl)-piperidin-1-yl]-5-nitro-pyrimidin-4-yl}-amine) at 20 mg/kg. Thirty minutes after treatment, blood (100 microliter) is collected via retro orbital vein of the eye (time 0 minutes) followed by a glucose bolus at 3 g/kg (per orally). Five minutes after delivering glucose, another blood sample (100 microliter) is collected (time 5 minutes). Plasma are collected after centrifugation and plasma total PYY levels are determined by using PYY EIA kit purchased from Phoenix Pharmaceuticals, Inc. (Peptide YY (PYY) (Rat, Mouse, Porcine, Canine) EIA kit, Catalog No. EK-059-03) according to instructions provided in the kit. It can be further shown that functional GPR119 receptor is necessary for the administered GPR119 agonist to increase plasma total PYY in the mice. […] Compound 1 is identical to a compound disclosed in International Patent Application No. PCT/US2004/001267 (published as WO 2004/065380).
# plasma total PYY [3] = experiment: Effect of oral GPR119 agonist on plasma total PYY in wild-type littermates (paper example); format: in vivo, wild-type mice; conditions: 20 mg/kg per orally; glucose bolus 3 g/kg; blood at 0 and 5 min
# Procedure: as §1
# [4] = humans, cited from earlier work
Molecule,agonist activity at GPR119 receptor (stimulation of cAMP accumulation) (human GPR119 receptor),effect on plasma total PYY (inclusive of PYY1-36 and PYY3-36) (plasma total PYY [1]),effect on plasma total PYY in GPR119-deficient mice (plasma total PYY [2]),effect on plasma total PYY in wild-type mice (plasma total PYY [3]),time of decline of serum PYY3-36 to basal levels ([4]; after infusion),time to peak serum levels of PYY3-36 ([4]; infusion to reach normal postprandial circulatory concentrations),"reduction of food intake ([4]; infusion, over 24 hours)"
"CC(C)c1noc(C2CCN(c3ncnc(Nc4ccc(S(C)(=O)=O)cc4F)c3[N+](=O)[O-])CC2)n1 [Compound 1, (2-Fluoro-4-methanesulfonyl-phenyl)-{6-[4-(3-isopropyl-[1,2,4]oxadiazol-5-yl)-piperidin-1-yl]-5-nitro-pyrimidin-4-yl}-amine]",agonist of GPR119 receptor,increased plasma total PYY,not in the GPR119-deficient mice,stimulate plasma total PYY in the wild-type mice,,,
PYY3-36: generated from PYY1-36 by cleavage of the N-terminal Tyr and Pro residues by dipeptidyl peptidase IV; high-affinity Y2R selective agonist,,,,,≤ 30 min,≤ 15 min,33%
